Results: PubChem BioAssay (NCI)
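Dose response: 5 concentrations. Exposure: 48 h. Format: 96-well plates. Endpoint: linear interpolation; highest concentration if not reached. GI50 marks 50% less growth. TGI marks complete inhibition of growth.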

Legend:
Test in all cases: NCI anticancer screen, dose series, 48 h
[1] = tested on: NCI-H522 lung
[2] = tested on: RXF 393 renal
[3] = tested on: ACHN renal
[4] = tested on: HCT-116 colon
[5] = tested on: UACC-257 melanoma
[6] = tested on: PC-3 prostate
[7] = tested on: K-562 leukemia
[8] = tested on: A498 renal
[9] = tested on: CCRF-CEM leukemia
[10] = tested on: IGROV1 ovarian

Row | Compound | GI50 [1] [µM] | TGI [1] [µM] | GI50 [2] [µM] | TGI [2] [µM] | GI50 [3] [µM] | TGI [3] [µM] | GI50 [4] [µM] | TGI [4] [µM] | GI50 [5] [µM] | TGI [5] [µM] | GI50 [6] [µM] | TGI [6] [µM] | GI50 [7] [µM] | TGI [7] [µM] | GI50 [8] [µM] | TGI [8] [µM] | GI50 [9] [µM] | TGI [9] [µM] | GI50 [10] [µM] | TGI [10] [µM]
1 | O=C1c2ccccc2-c2c1c1c(O)cccc1n2Cc1ccccc1 | 40 | > 100 | 11.5 | 44.8 | 6.9 | 23.8 | 11.8 | > 100 | 17.7 | 68.5 | 12.3 | 32.6 | 22.8 | > 100 | 6.24 | 25 | – | – | – | –
2 | CNCc1cccc2c1OCCOCCOCCNS(=O)(=O)c1ccc(cc1)-c1cnc(N)c(n1)C(=O)N2 | 1.31 | 3.15 | 0.353 | 1.72 | 2.78 | 11.7 | 0.67 | 2.67 | 1.93 | 4.68 | – | – | 1.26 | 5.46 | 1.36 | 3.79 | 0.532 | 8.57 | 0.513 | 3.89
3 | COc1ccc(-n2c(=O)c3ccccc3n(Cc3ccc(C(=O)NO)cc3)c2=O)cc1 | 1.45 | 4.07 | 1.49 | 3.34 | 3.23 | 13.5 | 1.78 | 4.16 | 1.65 | 4.3 | 2.08 | 5.06 | 3.11 | > 100 | 1.09 | 3.25 | 2.8 | > 100 | – | –
4 | CC(=O)O[C@H]([C@H](OC(C)=O)[C@H](C)OC(C)=O)[C@@H](/C=C/[C@H]1CC=CC(=O)O1)OC(C)=O | 15.6 | 36.2 | > 100 | > 100 | > 100 | > 100 | 33 | > 100 | > 100 | > 100 | 17.6 | > 100 | > 100 | > 100 | 41.4 | > 100 | 36.7 | > 100 | – | –
5 | Cc1ccccc1NC(=O)C1C(=O)N(c2ccccc2C)C(=O)/C1=N\NC(N)=O (configuration not stated) | – | > 100 | – | > 100 | – | > 100 | – | > 100 | – | > 100 | – | – | – | > 100 | – | > 100 | – | > 100 | – | > 100
6 | O/N=C1/C(=C/c2ccc(OCc3ccccc3)cc2)CCCC1C(NO)c1ccc(OCc2ccccc2)cc1 (configuration not stated) | – | 48 | – | 24.9 | – | > 100 | – | > 100 | – | > 100 | – | – | – | > 100 | – | > 100 | – | > 100 | – | > 100
7 | COc1cc(/C=C/C(=O)c2nc3cc(F)ccc3nc2C)cc(OC)c1OC | 6.98 | > 100 | – | – | 10.3 | > 100 | 3.59 | > 51.6 | 5.51 | > 100 | 6.05 | > 100 | 2.01 | > 23.9 | 5.78 | > 100 | 1.85 | > 21 | 11.4 | > 100
8 | COc1cc2c(cc1C)NC(=O)/C2=C\c1ccc(Oc2ccccc2)cc1 | 12.4 | 42 | 19.4 | 40.6 | 15.6 | 29 | 5.85 | 17.7 | 17.7 | 34 | 12.4 | 29.8 | – | – | 13.9 | 26.8 | 8.36 | 27.5 | 15.7 | 36.9
9 | O=C1c2ccccc2N1C(=O)c1ccccc1[N+](=O)[O-] | – | > 100 | – | – | – | > 100 | – | > 100 | – | > 100 | – | > 100 | – | > 100 | – | > 100 | – | > 100 | – | > 100
10 | COc1ccc(-c2c(Nc3ccccn3)nc3c(C4=CCCCC4)c(-c4ccccc4)[nH]n3c2=O)cc1 | 3.55 | 23.9 | 2.55 | 11.6 | 2 | 24.9 | 1.32 | 11.8 | 5 | 66.3 | 2.17 | > 100 | – | – | 2.01 | 15.4 | 1.22 | 6.58 | 3.5 | 51.4
11 | CC(=O)O[C@H]1C[C@@H]2[C@@]3(C)CC[C@H]4C[C@@]4(C)[C@@H]3CC[C@@]2(C)C2=CCC3=C(COC3=O)[C@]21C | 24.5 | 84.1 | 21.2 | 52.6 | 21.5 | 43.9 | 19.5 | 43.7 | 34.2 | > 100 | 18.4 | 46.1 | 40.4 | > 100 | – | – | 33.6 | > 100 | 26.5 | 78
12 | C=CCN(CC=C)Cc1c[nH]c2ccccc12 | 14.9 | 33.8 | – | – | 36.3 | > 100 | 14.6 | 32.1 | 8.63 | 28 | 32.4 | > 100 | 50.2 | > 100 | – | – | 56.9 | > 100 | 16 | 42.6
13 | CNS(=O)(=O)NNS(=O)(=O)c1ccc(C)cc1 | – | > 100 | – | > 100 | – | > 100 | – | > 100 | – | > 100 | – | – | – | > 100 | – | > 100 | – | > 100 | – | > 100
14 | O=C1c2ccccc2C2(O)N(c3ccccc3)C(=S)N(c3ccccc3)C12O (configuration not stated) | – | > 100 | – | > 100 | – | > 100 | – | > 100 | – | > 100 | – | – | – | > 100 | – | > 100 | – | > 100 | – | > 100
15 | CCCCCNC(=O)CCCCCCCCCCCNC(=O)CCCCCCCCCCN1C=CC(=CC=C2C=CC(=O)C=C2)C=C1 | – | > 100 | – | > 100 | – | > 100 | – | > 100 | – | 88.7 | – | – | – | > 100 | – | > 100 | – | > 100 | – | > 100
